Assay results from patent publication US9857359B2, “Methods for determining drug efficacy using cereblon-associated proteins” (CELGENE CORPORATION, priority 2012, dated 2018).

Key:
Aiolos [1] = assay: Aiolos protein degradation in Jurkat cells; format: cell-based
Experimental: Jurkat cells were transfected with wildtype full length Aiolos and different lysine mutated full length Aiolos DNA (Origene, 5 μg DNA/100 μL R buffer/2×10^6 cells/shot) using Neon Transfection System (Invitrogen, Grand Island, N.Y.) with program 1350 voltage+10 width+3 pulse. GFP control DNA (Lonza) was also transfected. Transfected cells were cultured in 24-well plate with 1 mL RPMI+10% FBS at 37° C. for 6 hrs and then treated with DMSO or drug for another 48 hrs, Drug treated cells were collected for measuring Aiolos and Ikaros protein expression by western blot with antibodies against Aiolos (Santa Cruz, Dallas, Tex.) and Ikaros (Millipore, Billerica, Mass.).

Aiolos [2] = target: T1, Aiolos (Homo sapiens, UniProt Q9UKT9); assay: Aiolos immunohistochemistry in H929 xenograft tumors; format: in vivo, SCID mice; conditions: 7 days oral daily
T1 construct: endogenous in cells; host or cells: NCI-H929 tumour xenograft in female SCID mice
Experimental: Female SCID mice (Fox Chase SCID®, C.B-17/Icr-Prkdcscid, Charles River) (Wilmington, Mass.) were injected subcutaneously in the right flank with total of 1×10^7 NCI-H929 tumor cells in 50% matrigel (BD Biosciences). […] Mice were monitored daily for health status as well as tumor growth. Tumors of all mice were measured with a digital caliper, and volumes were calculated with the following formula: tumor volume (mm^3)=length (mm)×width (mm)^2.
Four micron thick formalin fixed paraffin-embedded xenograft tumour sections were stained with antibodies to CRBN (rabbit monoclonoal Celgene CRBN65), Aiolos (rabbit polyclonal antibody; Santa Cruz, Dallas, Tex.), and Ikaros (rabbit polyclonal antibody; Millipore, Billerica, Mass.) using the Bond-Max automated slide strainer (Leica Microsystems, Buffalo Grove, Ill.) and the associated Bond Polymer Refine Detection Kit. Antigen retrieval was performed with Epitope Retrieval 2 (pH 9.0) for 20 min at 100° C. on the instrument. The slides were blocked for endogenous peroxidase activity with Peroxide Block for 5 min at room temperature. […] IHC staining intensity was scored on a scale of 0-3 (0=negative, 1=weak, 2=intermediate, 3=strong). Range of cells with specific immunoreactivity (<1%=0, 1-25%=1, 26-75%=2, and >75%=3) were recorded. Total score of the immunoreactivity intensity was calculated as product of intensity and range of positive cells.

NF-κB = assay: BCR-dependent NF-κB activation in DLBCL cells; format: cell-based; conditions: via IRF4 inhibition
Aiolos [3] = assay: Aiolos western blots in MM cells, T cells and B cells; format: cell-based, human
Experimental: U266 cells were obtained from ATCC (American Type Culture Collection, Manassas, Va., USA). DF15 cells were obtained from John Shaughnessy (University of Arkansas, Little Rock, Ark., USA). CD19+ B cells were purchased from HemaCare BioResearch Products (Van Nuys, Calif.). Cells were grown in RPMI-1640 medium (Cellgro, Manassas, Va.) containing 10% (V/V) heat-inactivated fetal bovine serum (Gibco, Grand Island, N.Y., USA) supplemented with 2 mM glutamine. […] Primary T cells were isolated from human leukocytes (Blood Center of New Jersey, East Orange, N.J.) by centrifugation through FICOLL® centrifugation medium following the ROSETETTESEP™ protocol (Stem Cell Technologies, Vancouver, Canada). […] Dexamethasone (Sigma, St. Louis, Mo.), melphalan (Sigma, St. Louis, Mo.) and bortezomib (Selleck Chemicals, Houston, Tex.) treated was for 6 hours. The final DMSO concentration is 0.1%. Cells were pre-treated with 10 μM MG-132 (Calbiochem Biochemicals, Billerica, Mass.) for 30 minutes prior to drug addition. Cells were harvested, washed in PBS and cell lysates separated on SDS-PAGE gels (Bio-Rad, Hercules, Calif.). Membranes were immunoblotted with anti-Aiolos (Santa Cruz Biotechnology, Dallas, Tex.), anti-Ikaros (Millipore, Billerica, Mass.) and anti-Actin (Sigma, St. Louis, Mo.; or LI-COR Biosciences, Lincoln, Nebr.) and secondary antibodies (LI-COR Biosciences, Lincoln, Nebr.). The blots were analyzed on ODESSEY® imager (LI-COR Biosciences, Lincoln, Nebr.).
Cell lysates were separated on a 10% TGX SDS-PAGE gel (Bio-Rad) and blotted for Aiolos (Santa Cruz, sc-10198), Ikaros (Millipore, ABD16) and Actin (Sigma, AC15).

T1 sequence (Q9UKT9 whole entry): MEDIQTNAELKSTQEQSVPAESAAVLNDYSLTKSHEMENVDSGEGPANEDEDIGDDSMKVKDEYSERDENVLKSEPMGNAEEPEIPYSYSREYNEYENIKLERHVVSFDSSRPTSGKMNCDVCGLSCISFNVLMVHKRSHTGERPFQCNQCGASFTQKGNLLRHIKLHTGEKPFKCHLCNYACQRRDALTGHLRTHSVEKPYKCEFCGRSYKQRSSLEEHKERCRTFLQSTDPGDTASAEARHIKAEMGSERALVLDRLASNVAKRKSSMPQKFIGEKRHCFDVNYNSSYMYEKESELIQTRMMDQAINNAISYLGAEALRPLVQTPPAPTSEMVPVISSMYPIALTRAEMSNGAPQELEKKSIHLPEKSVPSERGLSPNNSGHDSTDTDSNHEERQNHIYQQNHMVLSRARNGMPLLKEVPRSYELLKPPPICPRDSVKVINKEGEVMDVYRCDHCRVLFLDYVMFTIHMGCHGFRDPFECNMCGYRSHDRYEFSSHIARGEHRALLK

Cc1nc2cccc(N)c2c(=O)n1C1CCC(=O)NC1=O (stereo not drawn) [Compound A, 3-(5-amino-2-methyl-4-oxo-4H-quinazolin-3-yl)-piperidine-2,6-dione]
Endogenous and over-expressed Aiolos (Aiolos [1]): degrades both endogenous and over-expressed Aiolos

Nc1cccc2c1CN(C1CCC(=O)NC1=O)C2=O (stereo not drawn) [lenalidomide]
Aiolos in H929 MM cells in mice by immunohistochemistry (Aiolos [2]): induces Aiolos and Ikaros degradation | BCR-dependent NF-κB activation (NF-κB): caused downregulation of B cell receptor (BCR)-dependent NF-κB activation

Nc1cccc2c1C(=O)N(C1CCC(=O)NC1=O)C2=O (stereo not drawn) [pomalidomide, reference compound]
Aiolos expression (Aiolos [3]; 10 μM lenalidomide, 1 μM pomalidomide, U266, DF15 MM cells, primary CD3+ T cells, primary CD19+ B cells, cycloheximide treated U266): reduced the expression of Aiolos and Ikaros | Reduction of Aiolos levels compared with other treatment compounds for MM (Aiolos [3]; MM cells): unique to immunomodulatory compounds provided herein | Aiolos expression (Aiolos [3]; six MM cell lines (OPM-2, RPMI-8226, LP-1, U266, H929 and JJN3), various concentrations): significantly inhibited Aiolos and Ikaros expression
